Data as given in patent US20210113602A1, “USE OF 6-THIO-2'-DEOXYGUANOSINE (6-THIO-dG) TO TREAT MELANOMA” (The Board of Regents of the University of Texas System, priority 2018, published 2021).
Entries after “also recorded” stand apart in the source; their conditions may differ.

What was measured:
[1] = tested on: NRAS mutant melanoma cells; test: Telomere dysfunction-induced foci (TIF) assay; format: cell-based, human; details: WM3000 transduced with TERT shRNA; NAC 1 mM for 7 days
Procedure: Supplementary FIGS. 6a-b. […] NRAS mutant melanoma cells WM3000 were transduced with TERT shRNA and treated with NAC […] for 7 days. (Supplementary FIG. 6a) TIFs were assessed by indirect immunofluorescence combined with fluorescence in situ hybridization (FISH). Representative images are shown (scale bar=10 μm). (Supplementary FIG. 6b) Quantification of TIF positive cells. Cells were scored as TIF positive when three or more y-H2AS foci (green) were co-localizing with telomere foci (red). Data represent average of thirteen fields imaged +/−SD.
Supplementary FIGS. 8a-d. NRAS mutant melanoma cells are sensitive to the telomere uncapping agent 6-thio-dG. NRAS^mut melanoma cells were treated with 6-thio-dG for 6, 12 or 18 days. (Supplementary FIG. 8a) Relative cell number was assessed by Cyrstal Violet assay and calculated relative to DMSO-treated cells. […] (Supplementary FIG. 8c) NRAS^mut cells were treated with 6-thio-dG for 7 days and telomere-induced foci (TIF) were determined by indirect immunofluorescence combined with fluorescence in situ hybridization (FISH). […] (Supplementary FIG. 8d) Quantification of TIF assay. Cells were scored as TIF-positive when four or more γ-H2AX foci (green) were co-localizing with telomere foci (red). […] P values were calculated by unpaired Student's t-test.
DNA damage and telomere dysfunction assay (TIF). […] Mean fluorescence staining was quantified by flow cytometry. […]

[2] = tested on: NRAS mutant melanoma spheroids; test: 3D collagen-embedded melanoma spheroids, live/dead staining; format: cell-based, human; details: 6-thio-dG (5 μM) and Ganetespib (5 μM); day 7
Procedure: (FIG. 6a) Collagen-embedded melanoma spheroids were treated with DMSO, 6-thio-dG (5 μM) and Gam (5 μM) as in FIGS. 4a-c. On day 7, spheroids were stained with Calcein AM (live cells;
green) and EtBr (dead cells; red) and imaged using an inverted microscope (4×; scale bar=250 μm). Representative merged images from three independent experiments are shown. (FIGS. 6b-d) NRAS mutant M93-047 tumor bearing mice were treated with vehicle control, 6-thio-dG (2.5 mg/kg; ip qd), Gam (12.5 mg/kg; ip qod), or the combination of the two drugs for the indicated days (n=7 mice/group). (FIG. 6b) Average tumor volume over time±SEM is represented. (FIG. 6c) Average tumor weight±SEM after 14 days of treatment. P values were calculated using unpaired Student's t-test. * p<0.05, **p<0.01, ***p<0.005, when comparing vehicle control vs. combination treatment groups. […] Kaplan Meier survival curves of mice treated for 14 days. p-values were calculated by Mantel-Cox logrank test; * p<0.05, **p<0.01, ***p<0.005. (FIG. 6e) Animal weight (grams) before treatment (start of TX) and at the end of the study (End of TX) was assessed and recorded for every mouse enrolled in the study. […] Statistical significance was assessed by unpaired Student's t-test.
Supplementary FIGS. 10a-b. […] Percent cell death was determined by flow cytometry following staining of cells with Annexin V and Propidium iodide. […]

[3] = tested on: NRAS mutant melanoma cells; test: Cell death by flow cytometry (PSVue or Annexin V/PI); format: cell-based; details: TERT shRNA 7 dpi; 5 μM Gamitrinib for 48 h
Procedure: (FIG. 2d) NRASmut melanoma cells and non-transformed human fibroblasts were treated with 1 or 5 μM 6-thio-dG for 7 or 14 days. Cell death was assessed by PSVUe staining. Percent of apoptotic cells is shown. […] (FIGS. 2f-g) Cells were treated with 1 μM 6-thio-dG for 7 days. […] Data represent average from three independent experiments±SEM. *p<0.05; **p<0.01; ***p<0.005 in unpaired Student's t-test.
(FIG. 3f) SOD2 was silenced using shRNA. Transduced M93-047 cells were treated with DMSO or 1 μM of 6-thio-dG and cell death was assessed by Annexin V/PI straining. (FIG. 3g) M93-047 cells were transduced with a SOD2 lentiviral construct or empty vector control (pLX304). Transduced cells were treated with increasing doses (1, 2.5 and 5 μM) of 6-thio-dG for 7 days and cell death was assessed. Data represent average from three independent experiments±SEM. *p<0.05; **p<0.01; ***p<0.005 in unpaired Student's t-test.
(FIG. 4a) NRASmut melanoma cells transduced with TERT shRNA were treated 7 days post infection with 5 μM Gamitrinib (Gam) for 48 h. Cell death was assessed by Annexin V and PI staining. (FIG. 4b) NRASmut melanoma cells and non-transformed fibroblasts were treated with 1 μM 6-thio-dG for 5 days. At day 5, culture medium was replaced and cells treated with 1 μM 6-thio-dG plus 5 μM Gam for two more days. Cells were stained with Annexin V and PI and percent cell death was determined by flow cytometry. […] Data represent average of three independent experiments ±SEM. P values were calculated using unpaired Student's t-test; * p<0.05; ***p<0.005.
(Supplementary FIG. 10a) NRASmut melanoma cells were treated with 6-thio-dG (1 μ) for 7 days total. At day 5, culture medium was replaced and cells were treated with 1 μM 6-thio-dG plus 1 mM Phenformin for two more days. Percent cell death was determined by flow cytometry following staining of cells with Annexin V and Propidium iodide. Data represent average of three independent experiments +/−SEM. *p<0.05 in unpaired Student's t-test.

[4] = tested on: NRAS-WT/BRAF-WT melanoma cells; test: Cell death, Annexin V/PI; format: cell-based, human; details: single agents or combination; 1 μM 6-thio-dG, 5 μM Gam
[5] = tested on: NRAS-WT/BRAF-mut melanoma cells; test: Cell death, Annexin V/PI; format: cell-based, human
NRAS mutant SKNAS cells = test: Cell death, Annexin V/PI; format: cell-based, human; details: single agents or combination; 1 μM 6-thio-dG, 5 μM Gam
KRAS mutant HCT116 cells = test: Cell death, Annexin V/PI; format: cell-based, human; details: 1 μM 6-thio-dG, 5 μM Gam
KRAS mutant A549 cells = test: Cell death, Annexin V/PI; format: cell-based, human; details: 1 μM 6-thio-dG, 5 μM Gam
SOD2 = details: cited from earlier work
NRAS mutant cells = details: cited from earlier work
BRAF-mutant melanoma = details: cited from earlier work

CC(=O)N[C@@H](CS)C(=O)O [NAC, N-acetyl-L-cysteine]
number of TIF in TERT depleted cells [1]: attenuates TIFs; also recorded: attenuated the number of TIF

CC(C)c1cc(-c2n[nH]c(=O)n2-c2ccc3c(ccn3C)c2)c(O)cc1O [ganetespib]
enhancement of 6-thio-dG efficacy in spheroids [2]: did not substantially enhance the efficacy

Gamitrinib [reference compound]
cytotoxic effects in TERT depleted cells [3]: enhanced the cytotoxic effects
cell death [4]: did not induce cell death
cell death (in words) ([5]; 1 μM 6-thio-dG, 5 μM Gam): highly sensitive
cell death ([5]; Gamitrinib alone, 5 μM): 75-80%
cell death (NRAS mutant SKNAS cells): triggered significant death
cell death (KRAS mutant HCT116 cells): did not induce substantial death
cell death (KRAS mutant A549 cells): did not induce substantial death
SOD2 levels (SOD2): downregulate SOD2 levels
anti-cancer activity as a single agent (NRAS mutant cells): limited activity
anti-cancer efficacy (BRAF-mutant melanoma): efficacy
